Measured values taken from EP4541796A1, “EXATECAN DERIVATIVES AND USE THEREOF” (Hangzhou Adcoris Biopharma Co., Ltd, priority 2022, dated 2024).
Where two headings read alike, the source gives them in different places.

Columns and labels:
[1] = test system: breast adenocarcinoma cells SK-BR-3; experiment: In vitro inhibitory activity of compounds (small molecule toxins), CCK-8 cell growth assay; assay type: cell-based; conditions: Homo sapiens; Inhibitory activity against SK-BR-3; small molecules, 72 h incubation
Description: (§1) Human esophageal cancer cells OE33, and human breast adenocarcinoma cells SK-BR-3 were cultured in RPMI1640 (Cellmax) containing 10% fetal bovine serum (Cellmax), respectively. Cells in the exponential growth phase were diluted to a concentration of 1×10^5cells/mL by culture medium and added to 96-well cell culture plates at 100µL per well, then incubated overnight in a 37°C incubator with 5% CO2. On the following day, the small molecules were diluted with culture medium to 10,000 nM, 2,000 nM, 400 nM, 80 nM, 16 nM, 3.2 nM, 0.64 nM, 0.13 nM, respectively, and the diluted compounds were added to 96-well cell culture plates at 2 µL per well, with three replicate wells set-up for each concentration, and for the negative and blank control groups, in which the compounds had not been added, 2 µL of dilution was added per well. After the addition, the plates were returned to the 37°C incubator with 5% CO2 to continue incubation for 72 h. After incubation, the cell culture plates were removed, and the culture medium was aspirated using a pipette. Then, 100µL of culture medium containing 10% CCK-8 was added to each well, and the plates were incubated at 37°C for 3 hours. After incubation, the plates were removed, kept in the dark, and placed in ELISAplate. Absorbance was measured at 630nm as the reference wavelength and 450nm as the test wavelength. The IC50 values (Tables 1-3) were calculated using the four-parameter logistic regression method in GraphPad, based on the absorbance values. DNA topoisomerase I inhibitor Dxd was used as positive control drug.

[2] = test system: esophageal cancer cells OE33; experiment: as above; assay type: cell-based; conditions: Homo sapiens
Description: as §1

[3] = Inhibitory activity against OE33, small molecules, 72 h incubation, read-out: IC50/nM
[4] = OE33 cells, read-out: IC50 values for inhibiting the growth of esophageal cancer cells

For CC[C@@]1(O)C(=O)OCc2c1cc1n(c2=O)Cc2c-1nc1cc(F)c(C)c3c1c2[C@@H](NC(=O)N(C)NC)CC3 [Compound 3, Exatecan-N',N-dimethylaminourea], the IC50 [1] was < 50 nM, the IC50 [2, 3] was < 50 nM and the IC50 [2, 4] was < 10 nM.
CC[C@@]1(O)C(=O)OCc2c1cc1n(c2=O)Cc2c-1nc1cc(F)c(C)c3c1c2[C@@H](NC(=O)C1(N)COC1)CC3 [Compound 13, 3-aminooxetane-3-acetyl exatecan] was tested, and the IC50 [1] was < 50 nM, the IC50 [2, 3] was < 50 nM and the IC50 [2, 4] was < 10 nM.
CC[C@@]1(O)C(=O)OCc2c1cc1n(c2=O)Cc2c-1nc1cc(F)c(C)c3c1c2[C@@H](NC(=O)CO)CC3 [Dxd, reference compound] was tested, and the IC50 [1] was < 50 nM and the IC50 [2, 3] was < 50 nM.
CC[C@@]1(O)C(=O)OCc2c1cc1n(c2=O)Cc2c-1nc1cc(F)c(C)c3c1c2[C@@H](NC(=O)NN)CC3 [Compound 1, Exatecan-N-aminourea] gave an IC50 [1] of 50 to 100 nM and an IC50 [2, 3] of 50 to 100 nM.
In the case of CC[C@@]1(O)C(=O)OCc2c1cc1n(c2=O)Cc2c-1nc1cc(F)c(C)c3c1c2[C@@H](NC(=O)CNO)CC3 [Compound 6, 2-hydroxyaminoacetyl exatecan], the IC50 [2, 3] is reported as 50 to 100 nM.
With CC[C@@]1(O)C(=O)OCc2c1cc1n(c2=O)Cc2c-1nc1cc(F)c(C)c3c1c2[C@@H](NC(=O)N(C)N)CC3 [Compound 2, Exatecan-N-methyl-N-aminourea] the IC50 [2, 3] was < 50 nM and the IC50 [2, 4] was < 10 nM.
For CC[C@@]1(O)C(=O)OCc2c1cc1n(c2=O)Cc2c-1nc1cc(F)c(C)c3c1c2[C@@H](NC(=O)CN(C)N)CC3 [Compound 9, 2-N-methyl-N-aminoacetyl exatecan], the IC50 [2, 3] was < 50 nM and the IC50 [2, 4] was < 10 nM.
For CC[C@@]1(O)C(=O)OCc2c1cc1n(c2=O)Cc2c-1nc1cc(F)c(C)c3c1c2[C@@H](NC(=O)C(=O)N(C)N)CC3 [Compound 5, Exatecan N'-amino-N-methyloxalyldiamine], the IC50 [1] was < 50 nM and the IC50 [2, 3] was 50 to 100 nM.
In the case of CCONCC(=O)N[C@H]1CCc2c(C)c(F)cc3nc4c(c1c23)Cn1c-4cc2c(c1=O)COC(=O)[C@]2(O)CC [Compound 12, 2-ethoxyaminoacetyl exatecan], the IC50 [2, 3] is reported as 50 to 100 nM.
With CC[C@@]1(O)C(=O)OCc2c1cc1n(c2=O)Cc2c-1nc1cc(F)c(C)c3c1c2[C@@H](NC(=O)CONC)CC3 [Compound 8, 2-methylaminooxyacetyl exatecan] the IC50 [1] was < 50 nM, the IC50 [2, 3] was < 50 nM and the IC50 [2, 4] was < 10 nM.
CC[C@@]1(O)C(=O)OCc2c1cc1n(c2=O)Cc2c-1nc1cc(F)c(C)c3c1c2[C@@H](NC(=O)CN(C)NC)CC3 [Compound 10, 2-N-methyl-N-methylaminoacetyl exatecan] was tested, and the IC50 [2, 3] was 50 to 100 nM.
CC[C@@]1(O)C(=O)OCc2c1cc1n(c2=O)Cc2c-1nc1cc(F)c(C)c3c1c2[C@@H](NC(=O)CNOC)CC3 [Compound 7, 2-methoxyaminoacetyl exatecan] was tested, and the IC50 [2, 3] was < 50 nM and the IC50 [2, 4] was < 10 nM.
CC[C@@]1(O)C(=O)OCc2c1cc1n(c2=O)Cc2c-1nc1cc(F)c(C)c3c1c2[C@@H](NC(=O)CN(C)O)CC3 [Compound 11, 2-N-methylhydroxyaminoacetyl exatecan] gave an IC50 [2, 3] of 50 to 100 nM.
CC[C@@]1(O)C(=O)OCc2c1cc1n(c2=O)Cc2c-1nc1cc(F)c(C)c3c1c2[C@@H](NC(=O)C(=O)NN)CC3 [Compound 4, Exatecan-N'-amino oxalyldiamine] was tested, and the IC50 [1] was 50 to 100 nM and the IC50 [2, 3] was 50 to 100 nM.
